Patent US10188634B2, “3-(3H-imidazo[4,5-C]pyridin-2-yl)-1 H-pyrazolo[4,3-B]pyridines and therapeutic uses thereof” (Samumed, LLC, priority 2015, dated 2019)
pEC50: −log10 of the molar value.

Assays:
[1] = system: Wnt activity (Sp5-Luc reporter, human Sp5 promoter with eight TCF/LEF binding sites) in SW480 colon carcinoma cells; assay: Screening assay for Wnt activity: Sp5-Luc reporter gene assay in SW480 cells; type: cell-based; details: for inhibition at 10 µM: read-out: percent inhibition at 10 μM (given for EC50 of >10 μM); for pEC50: 10-point dose-response starting from 10 μM, overnight incubation
How it was run: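 Luminescence (BrightGlo) read after overnight 37 °C exposure of Sp5-Luc SW480 reporter cells, 4,000/well in 1% FBS, to compound dosed 1:3 over 10 points from 10 μM with 0.1% DMSO. Values normalized to DMSO-only cells, fitted with variable-slope four-parameter model; where EC50 exceeds 10 μM, % inhibition at 10 μM reported.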

[2] = system: primary human mesenchymal stem cells (hMSCs); assay: Induction of chondrogenesis in primary human mesenchymal stem cells (hMSCs), nodule imaging with Rhodamine B / Nile Red; type: cell-based; details: for Emax: hMSCs chondrogenesis, TGF-β3 (10 ng/mL) as positive control, read-out: Max. Activity as % TGF-β3 activity; for EC50: hMSCs, concentration required to induce 50% levels of chondrogenesis vs TGF-β3 positive control, read-out: Conc (nM) of 50% TGF-β3 activity
Protocol: Representative compounds were screened using primary human mesenchymal stem cells (hMSCs) to determine their ability to induce chondrogenesis (process by which cartilage is developed).
Human Mesenchymal Stem Cell Culture: Primary human mesenchymal stem cells (hMSCs) were purchased from Lonza (Walkersville, Md.) and expanded in Mesenchymal Stem Cell Growth Media (Lonza). Cells between passage 3 and 6 were used for the experiments.
Compound Screening: Each compound was dissolved in DMSO as a 10 mM stock and used to prepare compound source plates. For the 96 well assay, serial dilution (1:3, 6-point dose-response curves from 2700 nM to 10 nM) and compound transfer was performed using the ECHO 550 (Labcyte, Sunnyvale, Calif.) into 96-well clear bottom assay plates (Greiner Bio-One) with appropriate DMSO backfill for a final DMSO concentration of 0.03%. hMSCs were plated at 20,000 cells/well in 250 μL/well Incomplete Chondrogenic Induction Medium (Lonza; DMEM, dexamethasone, ascorbate, insulin-transferrin-selenium [ITS supplement], gentamycin-amphotericin [GA-1000], sodium pyruvate, proline and L-glutamine). TGF-β3 (10 ng/mL) was used as a positive control for differentiation while negative control wells were treated with 75 nL DMSO for normalization and calculating EC50 values. For the 384 well assay, serial dilution (1:3, 8-point dose-response curves from 5000 nM to 2.2 nM) and compound transfer was performed using the ECHO 550 (Labcyte, Sunnyvale, Calif.) into 384-well clear bottom assay plates (Greiner Bio-One) with appropriate DMSO backfill for a final DMSO concentration of 0.03%. hMSCs were plated at 8,000 cells/well in 80 μL/well Incomplete Chondrogenic Induction Medium (Lonza; DMEM, dexamethasone, ascorbate, insulin-transferrin-selenium [ITS supplement], gentamycin-amphotericin [GA-1000], sodium pyruvate, proline and L-glutamine). TGF-β3 (10 ng/mL) was used as a positive control for differentiation while negative control wells were treated with 25 nL DMSO for normalization and calculating EC50 values. Cells were incubated at 37° C. and 5% CO2 for 6 days. To image chondrogenic nodules, the cells were fixed using 4% formaldehyde (Electron Microscopy Sciences), and stained with 2 μg/mL Rhodamine B (Sigma-Aldrich) and 20 μM Nile Red (Sigma-Aldrich) [Johnson K., et.al, A Stem Cell-Based Approach to Cartilage Repair, Science, (2012), 336(6082). 717-721]. The nodules imaged (25 images per well for 96 well plates and 9 images per well for 384 well plates at 10× magnification) by excitation at 531 nm and emission at 625 nm and quantified using the CellInsight CX5 (Thermo Scientific). Area of nodules in each well was normalized to the average of 3 DMSO treated wells on the same plate using Excel (Microsoft Inc.). The normalized averages (fold change over DMSO) of 2 or 3 replicate wells for each compound concentration were calculated. Due to solubility limitations of some of the compounds, curve fitting was incomplete leading to inaccurate EC50 determinations.
Using TGF-β3 as a positive control, the concentration of representative compounds required to induce 50% levels of chondrogenesis is reported. In addition, the maximum activity of each compound and the respective dose that each compound reached maximum chondrogenesis activity is reported.

| pEC50 [1] | EC50 [2] | SMILES | inhibition at 10 µM [1] | Emax [2] |
| --- | --- | --- | --- | --- |
| < 5.00 | 10 nM | CN(C)Cc1cncc(-c2ccc3[nH]nc(-c4nc5c(-c6cccs6)cncc5[nH]4)c3n2)c1 [Compound 321, N,N-dimethyl-1-(5-(3-(7-(thiophen-2-yl)-3H-imidazo[4,5-c]pyridin-2-yl)-1H-pyrazolo[4,3-b]pyridin-5-yl)pyridin-3-yl)methanamine] | 19.2% | 79% |
| < 5.00 | – | Cc1ccc(-c2cncc3[nH]c(-c4n[nH]c5ccc(-c6cncc(NC(=O)C(C)C)c6)nc45)nc23)s1 [Compound 373, N-(5-(3-(7-(5-Methylthiophen-2-yl)-3H-imidazo[4,5-c]pyridin-2-yl)-1H-pyrazolo[4,3-b]pyridin-5-yl)pyridin-3-yl)isobutyramide] | 16.1% | 42% |
| < 5.00 | 1670 nM | CCNCc1cncc(-c2ccc3[nH]nc(-c4nc5c(-c6cc(F)cc(NCCN(C)C)c6)cncc5[nH]4)c3n2)c1 [Compound 426, N^1-(3-(2-(5-(5-((Ethylamino)methyl)pyridin-3-yl)-1H-pyrazolo[4,3-b]pyridin-3-yl)-3H-imidazo[4,5-c]pyridin-7-yl)-5-fluorophenyl)-N^2,N^2-dimethylethane-1,2-diamine] | 8.8% | 66% |
| < 5.00 | 10 nM | CCCCC(=O)Nc1cncc(-c2ccc3[nH]nc(-c4nc5c(-c6cc(F)cc(NCCN(C)C)c6)cncc5[nH]4)c3n2)c1 [Compound 439, N-(5-(3-(7-(3-((2-(Dimethylamino)ethyl)amino)-5-fluorophenyl)-3H-imidazo[4,5-c]pyridin-2-yl)-1H-pyrazolo[4,3-b]pyridin-5-yl)pyridin-3-yl)pentanamide] | 3.1% | 65% |
| < 5.00 | – | CCCC(=O)Nc1cncc(-c2ccc3[nH]nc(-c4nc5c(-c6cc(F)cc(CNS(C)(=O)=O)c6)cncc5[nH]4)c3n2)c1 [Compound 465, N-(5-(3-(7-(3-Fluoro-5-(methylsulfonamidomethyl)phenyl)-3H-imidazo[4,5-c]pyridin-2-yl)-1H-pyrazolo[4,3-b]pyridin-5-yl)pyridin-3-yl)butyramide] | 28% | 39% |
| < 5.00 | – | Fc1cccc(-c2cncc3[nH]c(-c4n[nH]c5ccc(C6CCNCC6)nc45)nc23)c1 [Compound 477, 3-(7-(3-Fluorophenyl)-3H-imidazo[4,5-c]pyridin-2-yl)-5-(piperidin-4-yl)-1H-pyrazolo[4,3-b]pyridine] | 20% | 43% |
| < 5.00 | 21 nM | Fc1cccc(-c2cncc3[nH]c(-c4n[nH]c5ccc(-c6cn[nH]c6)nc45)nc23)c1 [Compound 479, 3-(7-(3-Fluorophenyl)-3H-imidazo[4,5-c]pyridin-2-yl)-5-(1H-pyrazol-4-yl)-1H-pyrazolo[4,3-b]pyridine] | 9% | 52% |
| < 5.00 | – | Cn1cc(-c2ccc3[nH]nc(-c4nc5c(-c6cccc(F)c6)cncc5[nH]4)c3n2)cn1 [Compound 480, 3-(7-(3-Fluorophenyl)-3H-imidazo[4,5-c]pyridin-2-yl)-5-(1-methyl-1H-pyrazol-4-yl)-1H-pyrazolo[4,3-b]pyridine] | 13% | 49% |
| < 5.00 | 30 nM | Cc1ncc(-c2ccc3[nH]nc(-c4nc5c(-c6cccc(F)c6)cncc5[nH]4)c3n2)n1C [Compound 481, 5-(1,2-Dimethyl-1H-imidazol-5-yl)-3-(7-(3-fluorophenyl)-3H-imidazo[4,5-c]pyridin-2-yl)-1H-pyrazolo[4,3-b]pyridine] | 46% | 132% |
| < 5.00 | 7 nM | NC1CN(c2cncc(-c3ccc4[nH]nc(-c5nc6c(-c7cccc(F)c7)cncc6[nH]5)c4n3)n2)C1 [Compound 482, 1-(6-(3-(7-(3-Fluorophenyl)-3H-imidazo[4,5-c]pyridin-2-yl)-1H-pyrazolo[4,3-b]pyridin-5-yl)pyrazin-2-yl)azetidin-3-amine] | 21% | 56% |
| < 5.00 | 7 nM | Fc1cccc(-c2cncc3[nH]c(-c4n[nH]c5ccc(-c6cncc(OC7CCNCC7)c6)nc45)nc23)c1 [Compound 484, 3-(7-(3-Fluorophenyl)-3H-imidazo[4,5-c]pyridin-2-yl)-5-(5-(piperidin-4-yloxy)pyridin-3-yl)-1H-pyrazolo[4,3-b]pyridine] | 24% | 82% |
| < 5.00 | 21 nM | Oc1cncc(-c2ccc3[nH]nc(-c4nc5c(-c6cccc(F)c6)cncc5[nH]4)c3n2)c1 [Compound 489, 5-(3-(7-(3-Fluorophenyl)-3H-imidazo[4,5-c]pyridin-2-yl)-1H-pyrazolo[4,3-b]pyridin-5-yl)pyridin-3-ol] | 27% | 54% |
| < 5.00 | 2 nM | Fc1cccc(-c2cncc3[nH]c(-c4n[nH]c5ccc(-c6cnccn6)nc45)nc23)c1 [Compound 492, 3-(7-(3-Fluorophenyl)-3H-imidazo[4,5-c]pyridin-2-yl)-5-(pyrazin-2-yl)-1H-pyrazolo[4,3-b]pyridine] | 13% | 67% |
| < 5.00 | 21 nM | CN(C)CC(=O)Nc1cncc(-c2ccc3[nH]nc(-c4nc5c(-c6cccc(F)c6)cncc5[nH]4)c3n2)c1 [Compound 925, 2-(Dimethylamino)-N-(5-(3-(7-(3-fluorophenyl)-3H-imidazo[4,5-c]pyridin-2-yl)-1H-pyrazolo[4,3-b]pyridin-5-yl)pyridin-3-yl)acetamide] | 23% | 52% |
| < 5.00 | 30 nM | COc1cccc(-c2cncc3[nH]c(-c4n[nH]c5ccc(-c6cccnc6)nc45)nc23)c1 [Compound 949, 3-(7-(3-Methoxylphenyl)-3H-imidazo[4,5-c]pyridin-2-yl)-5-(pyridin-3-yl)-1H-pyrazolo[4,3-b]pyridine] | 18.2% | 59% |
| < 5.00 | 10 nM | COc1cccc(-c2cncc3[nH]c(-c4n[nH]c5ccc(-c6cncc(NC(=O)C7CCCCC7)c6)nc45)nc23)c1 [Compound 967, N-(5-(3-(7-(3-Methoxylphenyl)-3H-imidazo[4,5-c]pyridin-2-yl)-1H-pyrazolo[4,3-b]pyridin-5-yl)pyridin-3-yl)cyclohexanecarboxamide] | 0% | 80% |
| < 5.00 | 7 nM | Cc1ncc(-c2ccc3[nH]nc(-c4nc5c(-c6cccc(F)c6)cncc5[nH]4)c3n2)s1 [Compound 1081, 5-(3-(7-(3-Fluorophenyl)-3H-imidazo[4,5-c]pyridin-2-yl)-1H-pyrazolo[4,3-b]pyridin-5-yl)-2-methylthiazole] | 38% | 81% |

| SMILES | pEC50 [1] | EC50 [2] | inhibition at 10 µM [1] | Emax [2] |
| --- | --- | --- | --- | --- |
| Fc1cccc(-c2cncc3[nH]c(-c4n[nH]c5ccc(C6=CCNCC6)nc45)nc23)c1 [Compound 478, 3-(7-(3-Fluorophenyl)-3H-imidazo[4,5-c]pyridin-2-yl)-5-(1,2,3,6-tetrahydropyridin-4-yl)-1H-pyrazolo[4,3-b]pyridine] | < 5.00 | 7 nM | 11% | 53% |
